Literature values as cited in patent US20060135599A1, “Use for pharmaceutical composition” (GW Pharma Limited, priority 2002, published 2006).

Tests used:
[1] = system: spasticity; conditions: oral, nine patients
[2] = system: spasticity; conditions: oral, 13 patients

CCCCCc1cc(O)c2c(c1)OC(C)(C)[C@@H]1CCC(C)=C[C@@H]21 [oral THC, Δ^9 tetrahydrocannabinol]
spasticity compared with placebo [1]: statistically significant reduction
subjective improvements in spasticity [2]: significant subjective improvements
